Series [1] deals with stem cells. The note with it: mice (Broxmeyer 2005); cited from earlier work.
The subject of series [2] is peripheral blood cells. As to the kind of experiment: s.c. dose finding study, hematological analysis of peripheral blood.
The test system of series [3] is HGF. Briefly: s.c. dose finding study, HGF-ELISA. The note with it: one hour after administration of AMD3100. (ELISA stands for enzyme-linked immunosorbent assay.)
For series [4] the following is noted: clinical trials (CHMP Assessment Report); cited from earlier work.
The subject of series [5] is colony forming cells (CFCs). The settings on record: mice (Sweeney 2000, 2002); cited from earlier work.
Series [6] deals with CFU-GM. The settings on record: cited from earlier work.
The subject of series [7] is colony forming cells (CFCs). The settings on record: monkeys (Sweeney 2000, 2002); cited from earlier work.
Setting [8] is: AMD3100 5 mg/kg s.c., 1 hour, mean ± SEM.

Where two headings read alike, the source gives them in different places. Marks after values point to notes of the source that are not given here.

Take `c1cc(CN2CCCNCCNCCCNCC2)ccc1CN1CCCNCCNCCCNCC1` [AMD3100, 1,1′-[1,4-phenylenebis (methylene)]-bis-1,4,8,11-tetraazacyclotetradecane, reference compound]: in series [1], the “time of peak in mobilized stem cells after plerixafor administration” value is 1 h. Further, in series [2] (setting [8]), the Basophils is 0.03 ± 0.0 10^9 cells/L, the Eosinophils is 0.3 ± 0.0* 10^9 cells/L, the LUC is recorded as 0.05 ± 0.0* 10^9 cells/L and the “Leukocytes (WBC)” value is given as 7.8 ± 0.6* 10^9 cells/L. Further, in series [2] (setting [8]), the Lymphocytes is recorded as 5.3 ± 0.4 10^9 cells/L, the MPV was determined as 8.0 ± 0.1, the Monocytes is recorded as 0.3 ± 0.0 10^9 cells/L and the Neutrophils is given as 1.8 ± 0.2* 10^9 cells/L. Moreover, in series [2] (mouse, in vivo, sc, 5 mg/kg), the Erythrocytes is given as 8.0 ± 0.0*** 10^12 cells/L, the Hemoglobin stood at 112.5 ± 0.9, the MCHC came to 332.0 ± 2.0 g/L and the MCV was 42.7 ± 0.6 fL. In series [2] (mouse, in vivo, sc, 5 mg/kg), the Platelets was 706.8 ± 30.7** 10^9 cells/L and the Reticulocytes was 186.3 ± 23.7 10^9 cells/L. In series [3], this molecule displayed an HGF levels of 650 ± 230 pg/mL. Further, the “HSCT patients who experienced infections after transplantation” value in series [4] is given as 20-25%.

For “dextran sulfate [dextran sulfate 10 kDa]”, the “time of CFC mobilization after dextran sulfate administration” value in series [5] was 3 h; in series [7] it was 6 h. The CFU-GM level in series [6] (colonies with >50 cells, G-CSF 10 μg/kg daily for five days and/or dextran sulfate 15 mg/kg once on day 5 (Han 1998)) is reported as 12.9±1.6 colonies. For the same molecule, the “time of peaks in peripheral WBC, MNC and CFU-GM” value in series [6] (i.v. injection of 15-30 mg, mice (Han 1998)) was 2 to 5 h.

The values above are taken from US10258642B2, “Dextran sulfate for use in mobilization of cells” (TX MEDIC AB, priority 2013, dated 2019).
